Results on eight compounds are retold here after patent publication US8362067B2, “3-aminoalkyl-1,3-dihydro-2H-indol-2-one derivatives, preparation thereof and therapeutic use thereof” (Sanofi, priority 2008, dated 2013).

One data set concerns the target human V1a receptors (Homo sapiens, UniProt P37288). Kind of data set: Measurement of intracellular calcium (FLIPR) on cells expressing human V1a receptors. Format: cell-based. As to conditions: blocking the pharmacological effects brought about by arginine-vasopressin (FLIPR and platelet aggregation tests). How it is done: The agonist or antagonist nature of the compounds is determined in vitro in a test for the measurement of intracellular calcium (FLIPR) on cells expressing human V1a receptors according to the general technique described in Sullivan et al., Methods Mol. Biol., 1999, 114, 125-133, using 1 μM of Fluo4 AM, and in a test for platelet aggregation induced with AVP on human PRP (platelet-rich plasma) according to the methodology described in J. Clin. Invest., 1993, 92, 224-231. The compounds are preincubated 30 minutes before the addition of the arginine-vasopressin in order to determine the agonist and antagonist properties of these molecules.

In another data set the target is human V2 receptors (Homo sapiens, UniProt P30518). The experiment in a line: Affinity for vasopressin V2 receptors. Format: binding. As to conditions: for IC50: binding. The source says:
The affinity of the compounds of formula (I) according to the invention for vasopressin V2 receptors was also studied (method described by M. Birnbaumer et al. in Nature (Lond.), 1992, 357, 333-335).
(§1) The comparative pharmacological results of Compounds Nos. 17, 38, 46, 107 and 108 according to the invention with the compounds α and β of the prior art on the various in vitro tests measuring the affinity at human V1a, V1b, V2 and oxytocin receptors are illustrated in the following TABLE XV. The results are expressed by the 50% inhibitory concentration (IC50) expressed on a nanomolar basis (nM).

In data set [1] the target is T1, human uterine oxytocin receptor (Homo sapiens, UniProt P30559).
T1 construct: expressed in transfected cells
T1 sequence (P30559 1-389): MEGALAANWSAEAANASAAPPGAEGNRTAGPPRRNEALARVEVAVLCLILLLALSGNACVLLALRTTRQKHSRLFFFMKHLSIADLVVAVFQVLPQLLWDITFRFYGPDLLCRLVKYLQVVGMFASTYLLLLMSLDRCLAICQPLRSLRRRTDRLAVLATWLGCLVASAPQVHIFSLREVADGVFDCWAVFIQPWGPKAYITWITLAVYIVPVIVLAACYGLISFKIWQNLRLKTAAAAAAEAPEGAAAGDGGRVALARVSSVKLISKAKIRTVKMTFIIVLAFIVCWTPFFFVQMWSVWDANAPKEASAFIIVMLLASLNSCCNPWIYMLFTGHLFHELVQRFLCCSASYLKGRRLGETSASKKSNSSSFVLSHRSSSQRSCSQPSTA
The experiment in a line: Affinity for oxytocin receptors: displacement of a radioiodinated oxytocin analog. The format is binding. Particulars: for IC50: binding, radioiodinated oxytocin analog. The protocol:
The affinity of the compounds according to the invention for oxytocin receptors was determined in an in vitro binding test using the method described by J. Elands et al. in Eur. J. Pharmacol., 1987, 147, 197-207. This method consists in studying in vitro the displacement of a radioiodinated oxytocin analog at the oxytocin receptors in a cell membrane preparation transfected with the human uterine oxytocin receptor.
as §1

Data set [2] deals with human arginine-vasopressin V1a receptors (Homo sapiens, UniProt P37288). Kind of data set: Affinity for human V1a receptors: displacement of [3H]-AVP. The format is binding. As to conditions: for IC50: binding, displacement of [3H]-AVP; for selectivity for human AVP V1a receptors and for human AVP V1b receptors: versus V2 and/or oxytocin receptors. The protocol: The affinity of the compounds of formula (I) according to the invention for arginine-vasopressin V1a receptors was determined in vitro using the method described by M. Thibonnier et al., J. Biol. Chem., 1994, 269, 3304-3310. This method consists in studying in vitro the displacement of tritiated arginine-vasopressin ([^3H]-AVP) at the V1a receptors present on membrane or cell preparations carrying rat or human V1a receptors.
Sequence of human arginine-vasopressin V1a receptors (P37288 whole entry): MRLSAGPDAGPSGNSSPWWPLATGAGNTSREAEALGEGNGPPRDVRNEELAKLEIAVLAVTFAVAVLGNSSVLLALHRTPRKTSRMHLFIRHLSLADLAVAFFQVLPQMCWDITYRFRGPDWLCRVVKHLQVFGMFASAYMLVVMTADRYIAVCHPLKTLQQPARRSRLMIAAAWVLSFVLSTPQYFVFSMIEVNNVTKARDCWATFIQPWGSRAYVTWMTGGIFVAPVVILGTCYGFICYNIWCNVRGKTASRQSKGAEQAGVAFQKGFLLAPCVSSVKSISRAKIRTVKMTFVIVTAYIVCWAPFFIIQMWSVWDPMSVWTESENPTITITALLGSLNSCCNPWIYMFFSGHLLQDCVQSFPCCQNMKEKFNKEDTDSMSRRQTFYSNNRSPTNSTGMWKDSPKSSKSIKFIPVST
as §1

The target in another data set is T2, human V1b receptors (Homo sapiens, UniProt P47901).
T2 sequence (P47901 1-424): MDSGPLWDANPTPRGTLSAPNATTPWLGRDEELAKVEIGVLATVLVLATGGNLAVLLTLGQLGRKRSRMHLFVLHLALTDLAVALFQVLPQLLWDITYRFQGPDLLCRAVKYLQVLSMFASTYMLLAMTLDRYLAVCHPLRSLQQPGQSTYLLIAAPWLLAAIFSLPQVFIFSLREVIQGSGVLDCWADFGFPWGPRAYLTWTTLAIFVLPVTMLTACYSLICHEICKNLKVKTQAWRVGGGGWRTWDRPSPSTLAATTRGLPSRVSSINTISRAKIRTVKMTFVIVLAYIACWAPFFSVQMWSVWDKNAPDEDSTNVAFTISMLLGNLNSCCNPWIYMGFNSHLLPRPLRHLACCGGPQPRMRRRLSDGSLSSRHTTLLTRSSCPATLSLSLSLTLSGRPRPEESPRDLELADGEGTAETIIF
Kind of data set: Affinity for human V1b receptors: displacement of [3H]-AVP. Particulars: binding. The protocol: The affinity of the compounds of formula (I) according to the invention for arginine-vasopressin V1b receptors was determined in vitro using the method described by Y. de Keyser et al. in Febs Letters, 1994, 356, 215-220. This method consists in studying in vitro the displacement of tritiated arginine-vasopressin ([^3H]-AVP) at the V1b receptors present on cell preparations carrying human V1b receptors.
as §1

Sequence of human V2 receptors (P30518 whole entry): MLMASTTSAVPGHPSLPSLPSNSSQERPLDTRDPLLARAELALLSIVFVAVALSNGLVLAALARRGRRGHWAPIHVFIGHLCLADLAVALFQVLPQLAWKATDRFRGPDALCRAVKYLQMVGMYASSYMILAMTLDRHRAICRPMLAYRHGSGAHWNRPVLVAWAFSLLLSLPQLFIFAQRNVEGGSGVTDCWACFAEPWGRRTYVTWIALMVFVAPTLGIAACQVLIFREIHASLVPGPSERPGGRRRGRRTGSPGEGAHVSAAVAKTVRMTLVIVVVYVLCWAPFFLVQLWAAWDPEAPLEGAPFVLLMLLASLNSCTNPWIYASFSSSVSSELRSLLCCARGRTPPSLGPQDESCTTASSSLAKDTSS
Sequence of human V1a receptors (P37288 whole entry): as the sequence (P37288 whole entry) above

The compound `COc1cc2c(cc1Cl)C(CCCN1CCNCC1)(c1ccccc1F)C(=O)N2S(=O)(=O)c1ccc(OC(C)C)cc1.Cl` (single isomer, unassigned) [Compound No. 17, 5-Chloro-3-(2-fluorophenyl)-1-[(4-isopropoxyphenyl)sulfonyl]-6-methoxy-3-[3-(piperazin-1-yl)propyl]-1,3-dihydroindol-2-one hydrochloride] registered a melting point of 232 °C. At human V1a receptors, the “agonist or antagonist nature at V1a receptors” value is given as “antagonists of V1a receptors”. This compound also registered an IC50 at human V2 receptors of 450 nM. For the same compound, the IC50 in data set [1] was determined as 390 nM. Besides, the IC50 in data set [2] turned out to be 2.4 nM. For the same compound, the IC50 on human V1b receptors is > 1000 nM.
Compound `COc1cc2c(cc1Cl)C(CCCN1CCN(C)CC1)(c1ccccc1F)C(=O)N2S(=O)(=O)c1ccc(OC(C)C)cc1.Cl` (stereo not shown) [Compound No. 13, 5-Chloro-3-(2-fluorophenyl)-1-[(4-isopropoxyphenyl)sulfonyl]-6-methoxy-3-[3-(4-methylpiperazin-1-yl)propyl]-1,3-dihydroindol-2-one hydrochloride] registered a melting point of 205 °C. Moreover, the “agonist or antagonist nature at V1a receptors” value on human V1a receptors was “antagonists of V1a receptors”.
As to `COc1cccc(S(=O)(=O)N2C(=O)C(CCCN3CCN(C)CC3)(c3ccccc3F)c3cc(Cl)c(OC)cc32)c1` (stereo not shown) [Compound No. 38], the IC50 is > 1000 nM at human V2 receptors, 500 nM in data set [1], 1.1 nM in data set [2] and > 1000 nM on human V1b receptors.
As to `COc1cc2c(cc1Cl)C(CCCN1CCNCC1)(c1ccccc1F)C(=O)N2S(=O)(=O)c1ccc(O)cc1` (stereo not shown) [Compound No. 46], the IC50 was > 1000 nM on human V2 receptors, 380 nM in data set [1], 2.4 nM in data set [2] and 640 nM at human V1b receptors.
With `CCN(CC)C(=O)Nc1ccc(S(=O)(=O)N2C(=O)C(NCCC3CCNCC3)(c3ccccc3Cl)c3cc(Cl)c(Cl)cc32)cc1` (stereo not drawn) [Compound α, 3-[4-[[5,6-dichloro-3-(2-chlorophenyl)-2-oxo-3-[(2-(piperidin-4-yl)ethyl)amino]-2,3-dihydro-1H-indol-1-yl]sulfonyl]phenyl]-1,1-diethylurea, reference compound], the “affinity for human AVP V2 receptors” value on human V2 receptors was “good affinity”. In addition, the “affinity for oxytocin receptors” value in data set [1] is reported as “good affinity”. Also, in data set [2], the “affinity for human AVP V1a receptors” value is on record as “good affinity”; the “selectivity for human AVP V1a receptors and for human AVP V1b receptors” value is recorded as “not selective”.
Take `CCN(CC)C(=O)Nc1ccc(S(=O)(=O)N2C(=O)C(NCCC3CCNCC3)(c3ccccc3Cl)c3cc(Cl)c(C)cc32)cc1` (stereo not drawn) [Compound β, 3-[4-[[5-chloro-3-(2-chlorophenyl)-6-methyl-2-oxo-3-[(2-(piperidin-4-yl)ethyl)amino]-2,3-dihydro-1H-indol-1-yl]sulfonyl]phenyl]-1,1-diethylurea, reference compound]: the “affinity for human AVP V2 receptors” value at human V2 receptors was “good affinity”. Besides, in data set [2], the “affinity for human AVP V1a receptors” value is given as “good affinity”; the “selectivity for human AVP V1a receptors and for human AVP V1b receptors” value was “not selective”.
For `COc1ccc(S(=O)(=O)N2C(=O)C(CCCN3CCNCC3)(c3ccccc3F)c3cc(F)c(OC)cc32)cc1C` (stereo not shown) [compound 107], the IC50 on human V2 receptors was > 1000 nM; in data set [1], > 1000 nM; in data set [2] it was 8.5 nM; at human V1b receptors, 140 nM.
Take `COc1ccc(S(=O)(=O)N2C(=O)C(CCCN3CCNCC3)(c3ccccc3F)c3cc(OC)c(OC)cc32)cc1C` (stereo not shown) [compound 108]: the IC50 at human V2 receptors was > 1000 nM; in data set [1], > 1000 nM; in data set [2], 5 nM; on human V1b receptors, 320 nM.
